Assay results: patent US20130295100A1, “MARKERS FOR ACUTE KIDNEY INJURY AND USES THEREOF” (OSPEDALE SAN RAFFAELE S.R.L., priority 2010, published 2013)

Assays:
[1] = test system: glomerular podocytes (nephrin, synaptopodin expression); assay: Western blot of cultured rat glomerular podocytes incubated with ouabain; assay type: cell-based; conditions: 10^−9 M ouabain for 4 days, vs control group
Protocol: Kidneys were taken from 7-10 day-old rats and glomerular podocytes were isolated and cultured as described.^30 Cell characterization was performed using markers of podocytes (nephrin, podocin, synaptopodin), epithelial (cytokeratin), smooth muscle (a-SMC) and endothelial cells (CD31). Podocytes were incubated in the absence or presence of 10^−9 M ouabain for 4 days and analyzed by Western blotting.
(§1) Samples were analyzed by Western blotting using specific antibodies against podocyte markers, such as nephrin (Santa Cruz Biotechnology), podocin (Sigma-Aldrich), synaptopodin (Progen Biotechnik), ZO-1 (Invitrogen) as described in Ferrandi M, et al (J Mol Med 2010; 88:203-217).^30 Actin (Sigma-Aldrich) was used for normalization.

[2] = test system: normotensive Sprague-Dawley rats; assay: Chronic subcutaneous ouabain infusion in rats (OHR): blood pressure and renal function; assay type: in vivo, rat; conditions: 8 weeks
Protocol: Care and husbandry of rats complied with the European Directives No. 86/609 and with the Italian Law (DL116, Jan. 27, 1992). The authorization for animal use in Prassis Sigma-Tau laboratories was obtained from the Italian Health Authority. Ouabain hypertensive rats (OHR) were obtained by subcutaneous ouabain infusion (Sprague-Dawley rats, 15 μg/kg/day ouabain from Sigma-Aldrich, n=7) with osmotic mini-pumps for 8 weeks as described.^1,2 Normotensive control rats received sterile saline (n=7). Systolic blood pressure and heart rate were recorded weekly in conscious rats by tail-cuff plethysmography.
Rats were housed in single metabolic cages and 24 h-urine samples were collected and analyzed for total protein and creatinine excretion (kits from Sentinel Diagnostics, Milan, Italy) as described in Doi M, et al.^29 At sacrifice, rat plasma was collected for creatinine determination.

[3] = test system: nephrin, synaptopodin (podocyte proteins); assay: Immunofluorescence of podocyte proteins in kidney sections of ouabain-infused rats; assay type: in vivo, rat; conditions: OHR vs control rats
Protocol: Immunofluorescence was performed on rat kidney sections by using anti-nephrin and anti-synaptopodin antibodies as described.^30

[4] = test system: nephrin, synaptopodin (podocyte proteins); assay: Western blot of renal microsomes from ouabain-infused rats; assay type: in vivo, rat; conditions: OHR vs control rats
Protocol: Renal microsomes were prepared from ouabain-infused rats and saline controls as described^30 and analyzed by Western blotting.
as §1

[5] = test system: ouabain antiserum; conditions: radioimmunoassay for endogenous ouabain, as previously described; cited from earlier work
[6] = test system: hypertension in patients; conditions: reference 34; cited from earlier work
[7] = ouabain 15 μg/kg/day s.c., OHR vs saline controls, p<0.05

SMILES: C[C@@H]1O[C@@H](O[C@H]2C[C@@H](O)[C@]3(CO)[C@H]4[C@H](O)C[C@]5(C)[C@@H](C6=CC(=O)OC6)CC[C@]5(O)[C@@H]4CC[C@]3(O)C2)[C@H](O)[C@H](O)[C@H]1O [ouabain]
- nephrin expression in podocytes, normalized for actin [1]: decreased expression
- systolic blood pressure (SBP) ([2]; ouabain 15 μg/kg/day s.c. by osmotic mini-pump, OHR vs saline controls, n=7): significantly raised
- urinary creatinine ([2]; ouabain 15 μg/kg/day s.c., 24 h urine, OHR): 33.8±1.4 mg/24 h
- reduction of creatinine clearance vs controls ([2]; ouabain 15 μg/kg/day s.c., OHR vs saline controls, p<0.02): −18%
- increase of plasma creatinine vs controls [2, 7]: +14%
- urinary protein excretion, change vs controls [2, 7]: +54%
- synaptopodin staining in kidney sections ([3]; data not shown): but not for synaptopodin
- nephrin staining in kidney sections ([3]; three rats per group): significant reduction of staining
- nephrin expression in renal microsomes, normalized for actin [4]: reduced expression
- synaptopodin expression in renal microsomes ([4]; data not shown): but not of synaptopodin

SMILES: CC(=O)S[C@@H]1CC2=CC(=O)CC[C@]2(C)[C@H]2CC[C@@]3(C)[C@@H](CC[C@@]34CCC(=O)O4)[C@H]12 [spironolactone]
- cross-reactivity of ouabain antiserum [5]: < 0.01%

SMILES: C[C@]12CC[C@H](O)C[C@H]1CC[C@@H]1[C@@H]2CC[C@]2(C)[C@@](O)(c3ccoc3)CC[C@]12O [rostafuroxin]
- antihypertensive activity in patients [6]: has been shown to have antihypertensive activity

SMILES: C[C@H]1O[C@@H](O[C@H]2[C@@H](O)C[C@H](O[C@H]3[C@@H](O)C[C@H](O[C@H]4CC[C@@]5(C)[C@H](CC[C@@H]6[C@@H]5C[C@@H](O)[C@]5(C)[C@@H](C7=CC(=O)OC7)CC[C@]65O)C4)O[C@@H]3C)O[C@@H]2C)C[C@H](O)[C@@H]1O [digoxin]
- cross-reactivity of ouabain antiserum [5]: approximately 0.42%
